Measurements published in patent US10344025B2, “GLS1 inhibitors for treating disease” (Board of Regents, The University of Texas System, priority 2014, dated 2019).

Assays:
[1] = target: purified recombinant human GAC (GLS1) (Homo sapiens (Human), UniProt O94925); test: GLS1 Enzymatic Activity Assay (dual-coupled enzymatic assay, resorufin/Amplex UltraRed readout); type: biochemical;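 further: glutamate from GAC coupled via glutamate oxidase and peroxidase to resorufin, read as fluorescence (ex 530, em 590 nm) kinetically or at 20 min, four-parameter logistic IC50 fit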
A549 cells = test: Proliferation Assay (A549 viability, Cell Titer Fluor, 72 hours); type: cell-based; conditions: Homo sapiens, A549, 72 h
In short: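 Cell Titer Fluor fluorescence after 72 h compound treatment (0.5% DMSO, 37 °C, 5% CO2) of A549 cells plated 24 h earlier at 1000/well. Four-parameter logistic fitting gave IC50.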

Sequence of purified recombinant human GAC (GLS1) (O94925 other isoform, or with tags, fused parts or gaps): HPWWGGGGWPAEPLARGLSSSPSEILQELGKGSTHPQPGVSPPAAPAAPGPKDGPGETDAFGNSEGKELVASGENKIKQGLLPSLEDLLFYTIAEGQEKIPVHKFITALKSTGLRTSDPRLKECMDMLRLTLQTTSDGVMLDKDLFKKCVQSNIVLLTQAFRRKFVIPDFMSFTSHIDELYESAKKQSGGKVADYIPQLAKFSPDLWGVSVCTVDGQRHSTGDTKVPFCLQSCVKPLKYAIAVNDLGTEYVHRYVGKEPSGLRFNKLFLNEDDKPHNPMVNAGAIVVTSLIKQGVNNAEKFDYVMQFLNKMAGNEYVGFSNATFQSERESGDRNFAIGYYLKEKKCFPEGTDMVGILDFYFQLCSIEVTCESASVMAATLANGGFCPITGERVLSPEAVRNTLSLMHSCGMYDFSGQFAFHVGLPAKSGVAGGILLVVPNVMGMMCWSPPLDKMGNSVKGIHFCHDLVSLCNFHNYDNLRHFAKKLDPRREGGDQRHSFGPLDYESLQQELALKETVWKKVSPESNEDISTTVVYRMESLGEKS

In the case of Cc1ccc(CNC(=O)c2cn(CC(F)CCn3cc(C(=O)NCc4cccc(OC(F)(F)F)c4)nn3)nn2)cn1 (centres unmarked) [Example 430, 1-{2-fluoro-4-[4-({[3-(trifluoromethoxy)phenyl]methyl}carbamoyl)-1H-1,2,3-triazol-1-yl]butyl}-N-[(6-methylpyridin-3-yl)methyl]-1H-1,2,3-triazole-4-carboxamide], the IC50 [1] is reported as < 100 nM and the EC50 (A549 cells) is reported as < 100 nM.

CNC(=O)c1cn(CCCCc2ccc(NC(=O)Cc3cccc(N4CCOCC4)c3)nn2)nn1 [Example 178, N-methyl-1-[4-(6-{2-[3-(morpholin-4-yl)phenyl]acetamido}pyridazin-3-yl)butyl]-1H-1,2,3-triazole-4-carboxamide] was tested, and the IC50 [1] was < 100 nM and the EC50 (A549 cells) was 100 to 500 nM.

CC1(C)Oc2ccc(CNC(=O)c3cn(CCCCn4cc(C(=O)NCc5cncc(C(F)(F)F)c5)nn4)nn3)cc2O1 [Example 136, 1-[4-(4-{[(2,2-dimethyl-2H-1,3-benzodioxol-5-yl)methyl]carbamoyl}-1H-1,2,3-triazol-1-yl)butyl]-N-{[5-(trifluoromethyl)pyridin-3-yl]methyl}-1H-1,2,3-triazole-4-carboxamide] was tested, and the IC50 [1] was < 100 nM and the EC50 (A549 cells) was < 100 nM.

With O=C(Cc1cccc(OC(F)(F)F)c1)Nc1cn(CCC(F)Cn2cc(C(=O)NCc3cc(C(F)(F)F)ccn3)nn2)nn1 (centres unmarked) [Example 407, 1-[2-fluoro-4-(4-{2-[3-(trifluoromethoxy)phenyl]acetamido}-1H-1,2,3-triazol-1-yl)butyl]-N-{[4-(trifluoromethyl)pyridin-2-yl]methyl}-1H-1,2,3-triazole-4-carboxamide] the IC50 [1] was < 100 nM and the EC50 (A549 cells) was < 100 nM.

For CNC(=O)c1cn(CCCCc2ccc(NC(=O)Cc3cccc(C4=CCOCC4)c3)nn2)nn1 [Example 199, 1-(4-(6-(2-(3-(3,6-dihydro-2H-pyran-4-yl)phenyl)acetamido)pyridazin-3-yl)butyl)-N-methyl-1H-1,2,3-triazole-4-carboxamide], the IC50 [1] was < 100 nM and the EC50 (A549 cells) was 100 to 500 nM.

O=C(Cc1ccccn1)Nc1nnc(CCCCn2cc(C(=O)NCc3cc(OC(F)(F)F)ccc3F)nn2)s1 [Example 554, N-{[2-fluoro-5-(trifluoromethoxy)phenyl]methyl}-1-(4-{5-[2-(pyridin-2-yl)acetamido]-1,3,4-thiadiazol-2-yl}butyl)-1H-1,2,3-triazole-4-carboxamide] was tested, and the IC50 [1] was < 100 nM and the EC50 (A549 cells) was < 100 nM.

In the case of O=C(CN1CCC(F)(F)C1)Nc1cn(CCCCn2cc(C(=O)NCc3cccc(OC(F)(F)F)c3)nn2)nn1 [Example 331, 1-(4-{4-[2-(3,3-difluoropyrrolidin-1-yl)acetamido]-1H-1,2,3-triazol-1-yl}butyl)-N-{[3-(trifluoromethoxy)phenyl]methyl}-1H-1,2,3-triazole-4-carboxamide], the IC50 [1] is reported as < 100 nM and the EC50 (A549 cells) is reported as 100 to 500 nM.

In the case of CNC(=O)c1nnc(CCC(F)Cn2cc(C(=O)NCc3cc(OC(F)(F)F)ccc3F)nn2)s1 (centres unmarked) [Example 555, 5-{3-fluoro-4-[4-({[2-fluoro-5-(trifluoromethoxy)phenyl]methyl}carbamoyl)-1H-1,2,3-triazol-1-yl]butyl}-N-methyl-1,3,4-thiadiazole-2-carboxamide], the IC50 [1] is reported as < 100 nM and the EC50 (A549 cells) is reported as 100 to 500 nM.

Cc1ccc(CNC(=O)c2cn(CC(F)CCn3cc(C(=O)NCc4cc(OC(F)(F)F)ccc4F)nn3)nn2)cn1 (centres unmarked) [Example 368, 1-{2-fluoro-4-[4-({[2-fluoro-5-(trifluoromethoxy)phenyl]methyl}carbamoyl)-1H-1,2,3-triazol-1-yl]butyl}-N-[(6-methylpyridin-3-yl)methyl]-1H-1,2,3-triazole-4-carboxamide] was tested, and the IC50 [1] was < 100 nM and the EC50 (A549 cells) was < 100 nM.

CNC(=O)c1cn(CCCCc2ccc(NC(=O)Cc3cccc(C4CCOCC4)c3)nn2)nn1 [Example 217, N-methyl-1-(4-(6-(2-(3-(tetrahydro-2H-pyran-4-yl)phenyl)acetamido)pyridazin-3-yl)butyl)-1H-1,2,3-triazole-4-carboxamide] was tested, and the IC50 [1] was < 100 nM and the EC50 (A549 cells) was 100 to 500 nM.

With O=C(Cc1ccccn1)Nc1nnc(CC[C@@H](F)Cn2cc(C(=O)NCc3cc(OC(F)(F)F)ccc3F)nn2)s1 [Example 198, (R)-1-(2-fluoro-4-(5-(2-(pyridin-2-yl)acetamido)-1,3,4-thiadiazol-2-yl)butyl)-N-(2-fluoro-5-(trifluoromethoxy)benzyl)-1H-1,2,3-triazole-4-carboxamide] the IC50 [1] was < 100 nM and the EC50 (A549 cells) was < 100 nM.

With CNC(=O)c1cn(C[C@@H](F)CCc2nnc(C(=O)NCc3cc(C(F)(F)F)ccn3)s2)nn1 (single isomer, unassigned) [Example 220] the IC50 [1] was 100 to 500 nM and the EC50 (A549 cells) was 500 to 5000 nM.

In the case of CNC(=O)c1cn(CCCCc2nnc(NC(=O)Cc3cccc(OC(F)(F)F)c3)s2)nn1 [Example 2, N-Methyl-1-(4-(5-(2-(3-(trifluoromethoxy)phenyl)acetamido)-1,3,4-thiadiazol-2-yl)butyl)-1H-1,2,3-triazole-4-carboxamide], the IC50 [1] is reported as < 100 nM and the EC50 (A549 cells) is reported as < 100 nM.

Compound CNC(=O)c1cn(CCC(F)Cn2cc(C(=O)NCc3cc(C(F)(F)F)ccn3)nn2)nn1 (centres unmarked) [Example 475, 1-(3-fluoro-4-(4-((4-(trifluoromethyl)pyridin-2-yl)methylcarbamoyl)-1H-1,2,3-triazol-1-yl)butyl)-N-methyl-1H-1,2,3-triazole-4-carboxamide] has an IC50 [1] of 100 to 500 nM and an EC50 (A549 cells) of 100 to 500 nM.

Compound O=C(Cc1cccc(OC(F)(F)F)c1)Nc1cn(CCCCn2cc(C(=O)NCC3CC3)nn2)nn1 [Example 301, N-(cyclopropylmethyl)-1-[4-(4-{2-[3-(trifluoromethoxy)phenyl]acetamido}-1H-1,2,3-triazol-1-yl)butyl]-1H-1,2,3-triazole-4-carboxamide] has an IC50 [1] of 100 to 500 nM and an EC50 (A549 cells) of 500 to 5000 nM.

O=C(Cc1cccc(OC(F)(F)F)c1)Nc1nnc(CCC(F)Cn2cc(C(=O)NCc3ncccc3F)nn2)s1 (centres unmarked) [Example 537, 1-[2-fluoro-4-(5-{2-[3-(trifluoromethoxy)phenyl]acetamido}-1,3,4-thiadiazol-2-yl)butyl]-N-[(3-fluoropyridin-2-yl)methyl]-1H-1,2,3-triazole-4-carboxamide] was tested, and the IC50 [1] was < 100 nM and the EC50 (A549 cells) was 100 to 500 nM.

In the case of CNC(=O)c1cn(C[C@H](F)CCc2ccc(NC(=O)Cc3cn(-c4cccc(OC(F)(F)F)c4)cn3)nn2)nn1 [Example 270, (R)-1-(2-fluoro-4-(6-(2-(1-(3-(trifluoromethoxy)phenyl)-1H-imidazol-4-yl)acetamido)pyridazin-3-yl)butyl)-N-methyl-1H-1,2,3-triazole-4-carboxamide], the IC50 [1] is reported as < 100 nM and the EC50 (A549 cells) is reported as < 100 nM.

For O=C(Cc1cc(OC(F)(F)F)ccc1F)Nc1cn(CCCCn2cc(C(=O)NCc3cc(Cl)ccc3F)nn2)nn1 [Example 384, N-[(5-chloro-2-fluorophenyl)methyl]-1-[4-(4-{2-[2-fluoro-5-(trifluoromethoxy)phenyl]acetamido}-1H-1,2,3-triazol-1-yl)butyl]-1H-1,2,3-triazole-4-carboxamide], the IC50 [1] was < 100 nM and the EC50 (A549 cells) was < 100 nM.

With CC(C)(O)CNC(=O)c1nnc(CCCCn2cc(C(=O)NCc3cccc(OC(F)(F)F)c3)nn2)s1 [Example 48, N-(2-hydroxy-2-methylpropyl)-5-{4-[4-({[3-(trifluoromethoxy)phenyl]methyl}carbamoyl)-1H-1,2,3-triazol-1-yl]butyl}-1,3,4-thiadiazole-2-carboxamide] the IC50 [1] was 500 to 5000 nM and the EC50 (A549 cells) was 500 to 5000 nM.
